Two compounds from doi:10.1101/2025.03.18.644008v1 (biorxiv, 2025) can be followed below.

The experiment has as its target T1, LPA3 receptor (Homo sapiens, UniProt Q9UBY5).
T1 sequence (Q9UBY5 1-353): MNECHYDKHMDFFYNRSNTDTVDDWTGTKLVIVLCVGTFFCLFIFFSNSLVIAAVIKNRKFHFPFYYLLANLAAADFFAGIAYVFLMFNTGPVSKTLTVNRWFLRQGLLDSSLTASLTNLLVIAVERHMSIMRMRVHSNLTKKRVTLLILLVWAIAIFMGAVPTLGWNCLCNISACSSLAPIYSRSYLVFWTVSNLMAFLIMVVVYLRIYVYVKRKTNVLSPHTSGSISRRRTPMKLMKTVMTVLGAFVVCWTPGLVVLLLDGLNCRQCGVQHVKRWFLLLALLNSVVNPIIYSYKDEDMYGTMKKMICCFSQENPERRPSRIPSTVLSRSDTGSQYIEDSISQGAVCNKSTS
Put plainly: intracellular calcium, Fura-2 AM, induced HEK […] Flp-In TREx cells. Format: cell-based.

For the compound `CCCCCCCC/C=C\CCCCCCCC(=O)OC[C@@H](COP(O)(O)=S)OC` [OMPT], the EC50 was approximately 0.06 µM. In the case of `Fc1ccc([C@@H]2CCNC[C@H]2COc2ccc3c(c2)OCO3)cc1` [paroxetine], the EC50 was approximately 30 µM.
